Among the data in PubChem BioAssay (NCI) are TGI and GI50 values, retold here.

Molecules are shown by their SMILES.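 Briefly, cells in 96-well plates were exposed to five compound concentrations for 48 h, and endpoints were estimated by linear interpolation. GI50 marks 50% less growth. TGI denotes the concentration required for complete inhibition of growth.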

Holding throughout (assay): growth of human tumour cells (NCI), 48 h
Experiment [1] concerns HCC-2998 colon.
Experiment [2] relates to SK-MEL-2 melanoma.
Experiment [3] concerns SNB-19 CNS.
Experiment [4] concerns COLO 205 colon.
Experiment [5] deals with HOP-92 NSCLC.
For experiment [6], the system named is TK-10 renal.
Experiment [7] relates to NCI-H460 lung.
Experiment [8] has as its system SK-MEL-5 melanoma.
The subject of experiment [9] is LOX IMVI melanoma.
Experiment [10] relates to ACHN renal.
For experiment [11], the system named is T-47D breast.

Consider `CC1=C(C2=C(C)C(=O)C(=O)c3cc(C)ccc32)c2ccc(C)cc2C(=O)C1=O`, for which the TGI in [1] amounted to 0.298 µM; in [2] it was 0.877 µM; in [3], 0.31 µM; in [4], 0.525 µM; in experiment [5] it was 0.398 µM; in [6], 1.2 µM. Also, the TGI was 0.531 µM in [7], 0.374 µM in experiment [8], over 100 µM in experiment [9] and 0.354 µM in experiment [10].

With `O=C(CSc1nnc(Cc2ccccc2)o1)Nc1ccc(Cl)cc1`, the TGI in experiment [1], in [2], in [3], in experiment [4], in experiment [6] and in experiment [7] was over 100 µM in each case. Besides, the TGI in experiment [8], in experiment [9] and in experiment [10] was over 100 µM in each case.

For the molecule `CN(C)C(=O)CC(C(=O)O)c1c[nH]c2ccccc12` (stereo unspecified), the TGI in experiment [1], in experiment [2], in experiment [3], in experiment [4], in experiment [6] and in experiment [7] was over 100 µM throughout. Further, the TGI in experiment [8], in experiment [9] and in experiment [10] was over 100 µM each time.

Turning to `NC(=O)N/N=C(\Cc1nc2ccc(C(=O)c3ccccc3)cc2[nH]c1=O)C(=O)Nc1ccc(Br)cc1`, the TGI in experiment [1], in [2], in [3], in [5], in [6] and in experiment [7] was over 100 µM in each case. Further, the TGI in experiment [8], in experiment [9] and in experiment [10] was over 100 µM each time.

As for `Nc1nc2c(ncn2CCOC(c2ccccc2)P(=O)(O)O)c(=O)[nH]1` (stereo unspecified), the TGI in [1], in experiment [2], in experiment [3], in [4], in [6] and in experiment [7] was over 100 µM each time. Also, the TGI in experiment [8], in experiment [9] and in experiment [10] was over 100 µM each time.

Take `COC(=O)[C@@H]1c2cc3c(c(O)c2[C@@H](OC)C[C@@]1(C)O)C(=O)c1c(O)cc2c(c1C3=O)OC1O[C@@]2(C)[C@H](O)[C@@H](N(C)C)[C@@H]1O`: the TGI in experiment [1] is 1.37 µM; in [2], 0.727 µM; in [3] it was 2.37 µM; in experiment [4], 1.98 µM; in experiment [5], 0.14 µM; in experiment [7], 0.488 µM. In addition, the TGI in experiment [8] came to 1.05 µM.

`CN1CCN(CC(=O)Nc2ccc3ncnc(Nc4ccc(Oc5cccc(C(F)(F)F)c5)c(Cl)c4)c3c2)CC1`: the GI50 was 2.02 µM in experiment [2]; 1.66 µM in experiment [11]; 1.09 µM in experiment [5]; 1.25 µM in experiment [6]; 1.74 µM in [7]; 1.12 µM in experiment [10]. Besides, the TGI turned out to be 4.04 µM in [2]; 4.1 µM in [11]; 2.46 µM in [5]; 2.83 µM in experiment [6]; 3.29 µM in experiment [7]; 2.33 µM in [10].

As for `c1ccc2nc3[nH]c4ccccc4c3cc2c1`, the TGI in experiment [1] came out at 2.85 µM; in [2], 16 µM; in [3], 4.43 µM; in [4] it was 1.53 µM; in experiment [5] it was 35.5 µM; in [6], 10.7 µM. Also, the TGI in experiment [7] was found to be 1.46 µM; in [8], 2.01 µM; in experiment [9] it was 1.16 µM; in experiment [10], 12.2 µM.

Regarding `C=CC1OC(CCCOC(=O)C(C)(C)C)O[C@@H]1CC` (stereo partly specified), the TGI in experiment [2], in experiment [11], in experiment [3], in [4], in [5] and in experiment [6] was over 100 µM in each case. Moreover, the TGI in experiment [7], in experiment [8] and in [10] was over 100 µM throughout.

With `C[n+]1c2ccccc2c(CNC(CCC(N)=O)C(=O)O)c2ccccc21` (stereo unspecified), the TGI was determined as 11.2 µM in experiment [1]; 12 µM in experiment [2]; 16.3 µM in experiment [3]; 2.14 µM in experiment [4]; 6.96 µM in experiment [5]; 5.68 µM in [6]. Moreover, the TGI is 11.8 µM in experiment [7], 10.5 µM in experiment [8], 6.64 µM in experiment [9] and 5.41 µM in experiment [10].

For `COC(=O)C(NC(=O)CNC(=O)CSc1nnc(COc2ccc(Cl)cc2)n1-c1ccccc1)C(C)C` (stereo unspecified), the TGI came out at 34 µM in experiment [1]; 40.5 µM in [2]; 50.1 µM in experiment [3]; 34.1 µM in experiment [4]; 51.5 µM in experiment [5]; 34.3 µM in experiment [6]. Also, the TGI in experiment [7] came to 36.2 µM; in [8], 30 µM; in [9], 50 µM; in experiment [10] it was 31.8 µM.

As to `Cc1ccc(/C=C2\NC(=S)N(CN3CCOCC3)C2=O)cc1`, the TGI in [2], in experiment [3], in experiment [4], in [5], in experiment [6] and in experiment [8] was over 100 µM each time. Also, the TGI in experiment [9] and in [10] was over 100 µM throughout.

`CN(C)CCNCc1c2ccccc2c(CNCCN(C)C)c2ccccc12`: the TGI in experiment [1] is 23.8 µM; in [2] it was 57.5 µM; in [4] it was 22.3 µM; in experiment [5] it was 47.3 µM; in experiment [7] it was over 100 µM; in experiment [8], 17.9 µM. Also, the TGI in [9] was 38.7 µM.

For the molecule `O=[N+]([O-])c1ccc(NC2OCC(O)C(O)C2O)cc1` (stereo unspecified), the TGI in experiment [1], in [2], in experiment [3], in experiment [4], in [5] and in [6] was over 100 µM in each case. Also, the TGI in experiment [7], in experiment [8], in [9] and in [10] was over 100 µM throughout.

As for `COc1ccc(/C(Cl)=C(\C=O)c2ccc(F)cc2)cc1`, the TGI in [2] is 28.6 µM; in experiment [3], over 100 µM; in experiment [4] it was 31.9 µM; in experiment [5] it was 19.1 µM; in [6] it was over 100 µM; in experiment [7], 20.1 µM. Besides, the TGI worked out at 27.9 µM in [8], 39.3 µM in experiment [9] and 35.6 µM in [10].

For `O=[N+]([O-])c1ccc(/C=C/c2ccc(N=Nc3ccc(/C=C/c4ccc([N+](=O)[O-])cc4S(=O)(=O)O)c(S(=O)(=O)O)c3)cc2S(=O)(=O)O)c(S(=O)(=O)O)c1`, the TGI in experiment [1] is over 100 µM; in [2] it was over 100 µM; in experiment [4], over 100 µM; in experiment [5], over 94.3 µM; in experiment [7], over 100 µM; in experiment [8] it was over 100 µM. The molecule further showed a TGI in experiment [9] of over 100 µM.

In the case of `CCOC(=O)c1c(C)n(Cc2ccccc2)c2c1cc(O)c1[nH]c3c(c12)CCCC3`, the TGI in experiment [2] was 5.25 µM; in experiment [3] it was 16.5 µM; in experiment [4] it was 18.9 µM; in experiment [5], 2.11 µM; in [6], 23.6 µM; in experiment [7] it was 7.32 µM. For the same molecule, the TGI was 15 µM in experiment [8], 16.8 µM in [9] and 23.9 µM in experiment [10].

Regarding `O=C1CN(c2ccc(Cl)cc2)C(=O)CN1CCN1CC(=O)N(c2ccc(Cl)cc2)CC1=O`, the TGI in experiment [1], in experiment [3], in experiment [4], in experiment [5], in experiment [6] and in experiment [7] was over 100 µM in each case. Moreover, the TGI in experiment [8] and in experiment [10] was over 100 µM throughout.

Consider `Cn1c(C(C#N)c2cc(Cl)ncn2)nc2ccccc21` (stereo unspecified), for which the TGI in [11], in experiment [3], in experiment [4], in experiment [5], in experiment [6] and in [7] was over 100 µM each time. Also, the TGI in [8], in experiment [9] and in experiment [10] was over 100 µM each time.

Consider `CCSc1nc2sc(C)c(C)c2c(=O)n1-c1ccc(C(=O)O)cc1`, for which the TGI in [1], in experiment [2], in experiment [3], in experiment [4], in [5] and in experiment [6] was over 100 µM throughout. Besides, the TGI in [7], in experiment [8], in experiment [9] and in [10] was over 100 µM in each case.

`C=C(C)C1Cc2c(cc(O)c3c(=O)c4ccccc4n(C)c23)O1` (stereo unspecified): the TGI in experiment [1] was over 100 µM; in experiment [2] it was over 100 µM; in [3], 34.5 µM; in experiment [4] it was over 100 µM; in experiment [5], 54.5 µM; in experiment [6], 34.8 µM. The TGI in [7] was over 100 µM; in experiment [8] it was over 100 µM; in [9], 37.2 µM; in [10], over 100 µM.
